Patent publication US20120156137A1, “COMPOSITION FOR TREATMENT OF ATOPIC DERMATITIS COMPRISING GLUCOSAMINE AND DERIVATIVES THEREOF AND A METHOD FOR TREATMENT OF ATOPIC DERMATITIS USING THEM” (priority 2006, published 2012)

What was measured:
transglutaminase = settings: as described in Korean Pat. Application No. 10-2006-56942; cited from earlier work
[1] = tested on: TPA-induced mouse ear edema model; assay: Anti-inflammatory activity of glucosamine orally administered to the TPA-induced mouse ear edema model; type: in vivo; settings: male ICR mice; oral 5, 10 or 20 mg/kg glucosamine 15 min and 6 hrs after TPA; read 24 hrs after TPA
Experimental: Ear edema was induced in mice using 12-O-tetradecanoylphorbol 13-acetate (TPA), as follows. TPA was prepared at 2.5[…]/20[…] in acetone. ICR mice were prepared one week before this test and allowed free access to food and water in order to minimize the stress of transport. 20[…] of the TPA solution was applied onto right ears of male ICR mice (7 weeks old). After 24 hrs, mice were sacrificed by cervical dislocation, and the right ears were punched using a 6-mm biopsy punch. The ear punches were weighed using a microbalance, finely teased, and subjected to a myeloperoxidase (MPO) assay. Thirty five male ICR mice (7 weeks old, weighing 25-32 g) were divided into seven groups, each of which consisted of five mice. Experimental animals were allowed free access to food and water for one week in order to minimize the stress of transport. Glucosamine and a control drug were diluted in sterile physiological saline. Group 1 was not treated with TPA or any drug. Group 2 was treated with TPA alone on the right ear skin thereof. Group 3 was topically applied with TPA, and then orally administered through a sonde with 0.5 ml of glucosamine in sterile physiological saline 15 min and 6 hrs after TPA application. […]

[2] = tested on: TPA-induced mouse ear edema model; assay: Anti-inflammatory activity of glucosamine topically applied to the TPA-induced mouse ear edema model; type: in vivo; settings: male ICR mice; topical 0.5%, 1% or 2% glucosamine 15 min and 6 hrs after TPA; read 24 hrs after TPA
Experimental: Ear edema was induced in mice using 12-O-tetradecanoylphorbol 13-acetate (TPA), as follows. TPA was prepared at 2.5[…]/20[…] in acetone. ICR mice were prepared one week before this test and allowed free access to food and water in order to minimize the stress of transport. 20[…] of the TPA solution was applied onto right ears of male ICR mice (7 weeks old). After 24 hrs, mice were sacrificed by cervical dislocation, and the right ears were punched using a 6-mm biopsy punch. The ear punches were weighed using a microbalance, finely teased, and subjected to a myeloperoxidase (MPO) assay. Thirty male ICR mice (7 weeks old, weighing 25-32 g) were divided into six groups, each of which consisted of five mice. Experimental animals were allowed free access to food and water for one week in order to minimize the stress of transport. Glucos amine and a control drug were diluted in sterile distilled water and then diluted 1:9 in acetone. Group 1 was not treated with TPA or any drug. Group 2 was treated with TPA alone on the right ear skin thereof. Group 3 was topically treated with TPA, and then with 20[…] of 0.5% glucosamine in sterile distilled water/acetone (1:9) 15 min and 6 hrs after TPA application. According to the same procedure as in Group 3, Group 4 was topically treated with 1% glucosamine, and Group 5 with 2% glucosamine. […]

atopy patients = assay: Clinical test for therapeutic effects of glucosamine on atopy; type: in vivo, human; settings: twenty atopy patients
Experimental: A clinical test was performed with twenty atopy patients in order to determine whether glucosamine has therapeutic effects on atopy in practice. The clinical test was conducted by the Department of Dermatology, Dongguk University Hospital (attending physician: A Y Lee; the clinical test was approved by an IRB of Dongguk University Hospital). Twenty atopy patients were dosed with glucosamine in the form of a tablet and a cream. In brief, glucosamine was orally administered at a daily dose of 500 mg for a period of two weeks. The cream (5% glucosamine) was topically applied to a desired site of the skin twice a day for a period of four weeks.

SMILES: N[C@H]1C(O)O[C@H](CO)[C@@H](O)[C@@H]1O (some centres unmarked) [glucosamine]
- inhibitory activity toward transglutaminase (transglutaminase): has inhibitory activity toward transglutaminase
- inhibition of acute inflammation (ear punch weight and MPO activity, FIGS. 3 and 4) [1]: inhibited acute inflammation regardless of the concentration thereof
- inhibition of acute inflammation (ear punch weight and MPO activity, FIGS. 1 and 2) [2]: inhibit acute inflammation regardless of concentrations thereof
- therapeutic effects on atopy, external use (FIG. 5) (atopy patients; cream (5% glucosamine) topically twice a day for four weeks): significant therapeutic effects on atopy
- therapeutic effects on atopy, oral administration (FIG. 5) (atopy patients; tablet, oral daily dose 500 mg for two weeks): significant therapeutic effects on atopy
